Experimental findings from patent US9994551B2, “Pyridazine derivatives as RORc modulators” (Genentech, Inc., priority 2015, dated 2018) are described below.

The test addresses T1, RORc ligand binding domain (Homo sapiens, UniProt P51449).
T1 construct: host or cells: E. coli
T1 sequence (P51449 269-508 limits assumed): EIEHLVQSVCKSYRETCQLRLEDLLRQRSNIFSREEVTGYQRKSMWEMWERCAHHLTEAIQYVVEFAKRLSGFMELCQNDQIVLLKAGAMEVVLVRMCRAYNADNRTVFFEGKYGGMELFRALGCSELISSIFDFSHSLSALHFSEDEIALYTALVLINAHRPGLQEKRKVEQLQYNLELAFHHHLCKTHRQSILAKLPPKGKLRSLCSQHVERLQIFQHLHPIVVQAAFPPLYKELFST
Put plainly: In vitro RORc ligand binding assay (25-[3H]hydroxycholesterol displacement, filter binding).

Broadly, the IC50 is the concentration that inhibits the measured activity by half. Read a high IC50 as a need for much substance. `CC1(C)[C@H]2CC[C@]1([C@@H]1CCCNC1=O)c1nnc(-c3c(F)cccc3F)cc12` [Compound 139, 3-[5-(2,6-difluorophenyl)-11,11-dimethyl-3,4-diazatricyclo[6.2.1.02,7]undeca-2,4,6-trien-1-yl]piperidin-2-one]: the IC50 was determined as 4.4 µM.

`CC[C@@H](O[C@@]12CC[C@@H](c3cc(-c4c(F)cccc4F)nnc31)C2(C)C)c1nc(COC)no1` [Compound 41, 5-((R)-1-(((5S,8R)-3-(2,6-difluorophenyl)-9,9-dimethyl-5,6,7,8-tetrahydro-5,8-methanocinnolin-8-yl)oxy)propyl)-3-(methoxymethyl)-1,2,4-oxadiazole] returned an IC50 of 0.004 µM.

Take `CC1(C)[C@H]2CC[C@]1([C@@H]1CN(C(=O)c3c[nH]c(=O)cn3)CCO1)c1nnc(-c3c(F)cccc3F)cc12` [Compound 118, 5-[2-[5-(2,6-difluorophenyl)-11,11-dimethyl-3,4-diazatricyclo[6.2.1.02,7]undeca-2,4,6-trien-1-yl]morpholine-4-carbonyl]-1H-pyrazin-2-one]: the IC50 is 0.011 µM.

Compound `C[C@H](O)C(=O)N(C)[C@@]12CC[C@@H](c3cc(-c4c(F)cccc4F)nnc31)C2(C)C` [Compound 1, (S)-N-((5R,8R)-3-(2,6-difluorophenyl)-9,9-dimethyl-5,6,7,8-tetrahydro-5,8-methanocinnolin-8-yl)-2-hydroxy-N-methylpropanamide] had an IC50 of 0.92 µM.

On to `CC1(C)[C@H]2CC[C@]1([C@H]1CCCN(C(=O)c3ccc(=O)[nH]n3)C1)c1nnc(-c3c(F)cccc3F)cc12` [Compound 125, 3-[3-[5-(2,6-difluorophenyl)-11,11-dimethyl-3,4-diazatricyclo[6.2.1.02,7]undeca-2,4,6-trien-1-yl]piperidine-1-carbonyl]-1H-pyridazin-6-one], for which the IC50 came out at 0.074 µM.

`CC1(C)[C@H]2CC[C@]1(c1cccc3nccn13)c1nnc(-c3c(F)cccc3F)cc12` [Compound 107, (5R,8S)-3-(2,6-difluorophenyl)-8-(imidazo[1,2-a]pyridin-5-yl)-9,9-dimethyl-5,6,7,8-tetrahydro-5,8-methanocinnoline] registered an IC50 of 0.0918 µM.

For the compound `CC1(C)[C@H]2CC[C@]1(O[C@H](C(N)=O)C1CC1)c1nnc(-c3c(F)cccc3F)cc12` [Compound 45], the IC50 came to 0.132 µM.

In turn, `CN(C)C(=O)N1CCO[C@H]([C@@]23CC[C@@H](c4cc(-c5c(F)cccc5F)nnc42)C3(C)C)C1` [Compound 86, (R)-2-((5R,8R)-3-(2,6-difluorophenyl)-9,9-dimethyl-5,6,7,8-tetrahydro-5,8-methanocinnolin-8-yl)-N,N-dimethylmorpholine-4-carboxamide] showed an IC50 of 0.473 µM.

Compound `CC1(C)[C@H]2CC[C@]1([C@H]1CCCN(C(=O)NCC3(O)COC3)C1)c1nnc(-c3c(F)cccc3F)cc12` (stereo in doubt) [Compound 153, 3-[5-(2,6-difluorophenyl)-11,11-dimethyl-3,4-diazatricyclo[6.2.1.02,7]undeca-2,4,6-trien-1-yl]-N-[(3-hydroxyoxetan-3-yl)methyl]piperidine-1-carboxamide] had an IC50 of 0.11 µM.

Compound `CC1(C)[C@H]2CC[C@]1([C@H]1CCCN(C(=O)c3ccon3)C1)c1nnc(-c3c(F)cccc3F)cc12` [Compound 131, [3-[5-(2,6-difluorophenyl)-11,11-dimethyl-3,4-diazatricyclo[6.2.1.02,7]undeca-2,4,6-trien-1-yl]-1-piperidyl]-isoxazol-3-yl-methanone] displayed an IC50 of 0.0062 µM.

`CC1(C)[C@H]2CC[C@]1([C@H]1CN(c3nc(CO)co3)CCO1)c1nnc(-c3c(F)cccc3F)cc12` [Compound 128, [2-[2-[5-(2,6-difluorophenyl)-11,11-dimethyl-3,4-diazatricyclo[6.2.1.02,7]undeca-2,4,6-trien-1-yl]morpholin-4-yl]oxazol-4-yl]methanol]: the IC50 was determined as 0.037 µM.

`CC[C@@H](O[C@@]12CC[C@@H](c3cc(-c4c(F)cccc4F)nnc31)C2(C)C)C(=O)NC[C@H](C)O` [Compound 51, (R)-2-(((5S,8R)-3-(2,6-difluorophenyl)-9,9-dimethyl-5,6,7,8-tetrahydro-5,8-methanocinnolin-8-yl)oxy)-N-((S)-2-hydroxypropyl)butanamide] gave an IC50 of 0.0615 µM.

Take `CN1CCN(C(N)=O)[C@@H]([C@@]23CC[C@@H](c4cc(-c5c(F)cccc5F)nnc42)C3(C)C)C1` [Compound 181, 2-[5-(2,6-difluorophenyl)-11,11-dimethyl-3,4-diazatricyclo[6.2.1.02,7]undeca-2,4,6-trien-1-yl]-4-methyl-piperazine-1-carboxamide]: the IC50 was determined as 0.062 µM.

Take `CCNC(=O)[C@H](CC)O[C@@]12CC[C@@H](c3cc(-c4c(F)cccc4F)nnc31)C2(C)C` [Compound 19, (S)-2-(((5S,8R)-3-(2,6-difluorophenyl)-9,9-dimethyl-5,6,7,8-tetrahydro-5,8-methanocinnolin-8-yl)oxy)-N-ethylbutanamide]: the IC50 was 0.0347 µM.

For the compound `CC[C@@H](O[C@@]12CC[C@@H](c3cc(-c4c(F)cccc4F)nnc31)C2(C)C)C(=O)NCCCO` [Compound 105, (R)-2-(((5S,8R)-3-(2,6-difluorophenyl)-9,9-dimethyl-5,6,7,8-tetrahydro-5,8-methanocinnolin-8-yl)oxy)-N-(3-hydroxypropyl)butanamide], the IC50 is 0.0339 µM.

`CC1(C)[C@H]2CC[C@]1(c1cncc3nccn13)c1nnc(-c3c(F)cccc3F)cc12` [Compound 109, (5R,8S)-3-(2,6-difluorophenyl)-8-(imidazo[1,2-a]pyrazin-5-yl)-9,9-dimethyl-5,6,7,8-tetrahydro-5,8-methanocinnoline] returned an IC50 of 0.175 µM.

`CNC(=O)c1cncc(O[C@@]23CC[C@@H](c4cc(-c5c(F)cccc5F)nnc42)C3(C)C)n1` [Compound 29, 6-(((5S,8R)-3-(2,6-difluorophenyl)-9,9-dimethyl-5,6,7,8-tetrahydro-5,8-methanocinnolin-8-yl)oxy)-N-methylpyrazine-2-carboxamide]: the IC50 amounted to 0.385 µM.

For `Cc1n[nH]c(N2CCC[C@H]([C@@]34CC[C@@H](c5cc(-c6c(F)cccc6F)nnc53)C4(C)C)C2)n1` [Compound 173, 5-(2,6-difluorophenyl)-11,11-dimethyl-1-[1-(3-methyl-1H-1,2,4-triazol-5-yl)-3-piperidyl]-3,4-diazatricyclo[6.2.1.02,7]undeca-2,4,6-triene], the IC50 is 0.0028 µM.

In turn, `CNS(=O)(=O)N1CCC[C@H]([C@@]23CC[C@@H](c4cc(-c5c(F)cccc5F)nnc42)C3(C)C)C1` [Compound 138, 3-[5-(2,6-difluorophenyl)-11,11-dimethyl-3,4-diazatricyclo[6.2.1.02,7]undeca-2,4,6-trien-1-yl]-N-methyl-piperidine-1-sulfonamide] displayed an IC50 of 0.012 µM.

Regarding `CC1(C)[C@H]2CC[C@]1([C@H]1CCCN(C(=O)c3cc[nH]n3)C1)c1nnc(-c3c(F)cccc3F)cc12` [Compound 135, [3-[5-(2,6-difluorophenyl)-11,11-dimethyl-3,4-diazatricyclo[6.2.1.02,7]undeca-2,4,6-trien-1-yl]-1-piperidyl]-(1H-pyrazol-3-yl)methanone], the IC50 was 0.0067 µM.

Compound `CC1(C)[C@H]2CC[C@]1(Oc1cc[nH]c(=O)c1)c1nnc(-c3c(F)cccc3F)cc12` [Compound 34, 4-(((5S,8R)-3-(2,6-difluorophenyl)-9,9-dimethyl-5,6,7,8-tetrahydro-5,8-methanocinnolin-8-yl)oxy)pyridin-2(1H)-one] displayed an IC50 of 0.202 µM.

For the compound `CC[C@@H](O[C@@]12CC[C@@H](c3cc(-c4c(F)cccc4F)nnc31)C2(C)C)C(=O)N1CC(CO)C1` [Compound 38, (R)-2-(((5S,8R)-3-(2,6-difluorophenyl)-9,9-dimethyl-5,6,7,8-tetrahydro-5,8-methanocinnolin-8-yl)oxy)-1-(3-(hydroxymethyl)azetidin-1-yl)butan-1-one], the IC50 amounted to 0.144 µM.

In the case of `CC1(C)[C@H]2CC[C@]1([C@H]1CCCN(c3cnccn3)C1)c1nnc(-c3c(F)cccc3F)cc12` [Compound 165, 5-(2,6-difluorophenyl)-11,11-dimethyl-1-(1-pyrazin-2-yl-3-piperidyl)-3,4-diazatricyclo[6.2.1.02,7]undeca-2,4,6-triene], the IC50 was 0.024 µM.

Regarding `CCC[C@@H](O[C@@]12CC[C@@H](c3cc(-c4c(F)cccc4F)nnc31)C2(C)C)C(N)=O` [Compound 49, (R)-2-(((5S,8R)-3-(2,6-difluorophenyl)-9,9-dimethyl-5,6,7,8-tetrahydro-5,8-methanocinnolin-8-yl)oxy)pentanamide], the IC50 is 0.0154 µM.

`CC1(C)[C@H]2CC[C@]1([C@H]1CCCN(C(=O)NC3(CO)COC3)C1)c1nnc(-c3c(F)cccc3F)cc12` [Compound 171] came in with an IC50 of 0.0065 µM.

Turning to `Cc1noc(N2CCO[C@@H]([C@@]34CC[C@@H](c5cc(-c6c(F)cccc6F)nnc53)C4(C)C)C2)n1` [Compound 91, (S)-2-((5R,8R)-3-(2,6-difluorophenyl)-9,9-dimethyl-5,6,7,8-tetrahydro-5,8-methanocinnolin-8-yl)-4-(3-methyl-1,2,4-oxadiazol-5-yl)morpholine], the IC50 stood at 0.101 µM.

`Cc1nc(N2CCO[C@H]([C@@]34CC[C@@H](c5cc(-c6c(F)cccc6F)nnc53)C4(C)C)C2)n(Cc2ccccc2)n1` [Compound 143, 4-(2-benzyl-5-methyl-1,2,4-triazol-3-yl)-2-[5-(2,6-difluorophenyl)-11,11-dimethyl-3,4-diazatricyclo[6.2.1.02,7]undeca-2,4,6-trien-1-yl]morpholine] displayed an IC50 of 0.0056 µM.

For the compound `CC1(C)[C@H]2CC[C@]1([C@H]1CCCN(C(=O)NCCS(C)(=O)=O)C1)c1nnc(-c3c(F)cccc3F)cc12` [Compound 158, 3-[5-(2,6-difluorophenyl)-11,11-dimethyl-3,4-diazatricyclo[6.2.1.02,7]undeca-2,4,6-trien-1-yl]-N-(2-methylsulfonylethyl)piperidine-1-carboxamide], the IC50 was 0.013 µM.
